Results reported in patent US20260108465A1 (Belhaven BioPharma Inc., priority 2024, published 2026).
Where two headings read alike, the source gives them in different places.

Conditions: human, in vivo; for mean AUC0-363: im

time of the second IM Cmax after dosing: approximately 45 minutes
mean AUC0-363 (0.3 mg): 18790 pg·min/mL
mean AUC0-363 (0.5 mg): 35890 pg·min/mL
SMILES: CNC[C@H](O)c1ccc(O)c(O)c1 [Epinephrine IM, epinephrine]
